Assays:
[1] = Lyophilisation solubility assay (Lysa); format: physicochemical; details: phosphate buffer, pH 6.5, aqueous buffer, thermodynamic from solid
Summary of the method: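 Solubility in μg/mL is read by UV or HPLC-UV on filtrate, neat and diluted 1/10. Before filtration, the residue from evaporated 10 mM DMSO stock was taken up in pH 6.5 0.05 M phosphate buffer, then stirred 1 h, shaken 2 h and stood overnight, in duplicate.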

[2] = Metabolic stability study in human microsome; format: in vitro ADME
Summary of the method: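 Depletion of 1 μM compound followed by LC-MS/MS over 0–30 min (0, 3, 6, 9, 15, 30 min) after methanol quench. Incubations at 37 °C, pH 7.4 phosphate buffer, 0.5 mg/mL microsomal protein, with NADPH (1 mM) or a regenerating system as cofactor; controls lacked cofactor.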

HBV [3] = test: Anti-HBV activity in vitro in HepG2.2.15 cells (extracellular HBV DNA by qPCR); format: cell-based, Hepatitis B virus; details: Hepatitis B virus; HepG2.2.15 cells; in-house data; read-out: EC50
Summary of the method: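 Supernatant HBV DNA was measured by qPCR after viral DNA extraction. Samples came from 5-day cultures of HepG2.2.15 cells, an HBV-genome-transfected HepG2 line, exposed to half-log compound dilutions in medium containing 0.5% DMSO.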

HBV [4] = test: Selectivity index (CC50 value/EC50 value); format: cell-based, Hepatitis B virus
Summary of the method: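 Ratio of CC50 to EC50, measuring antiviral activity against HBV relative to cytotoxicity in vitro; higher values indicate greater separation between viral inhibition and cell death.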

HepDE19 cells = test: Cytotoxicity (CC50) in HepDE19 cells, CCK-8 cell viability; format: cell-based
Summary of the method: (§1)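 HBV-transfected HepG2-derived HepDE19 cells grown in DMEM-F12 with 10% FBS and G418. Viability read five days after treatment by CCK-8, 2 h at 37 °C, absorbance at 450 and 630 nm.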

[5] = as above; format: cell-based; details: human, HepDE19 cells; read-out: CC50
Summary of the method: as §1

Row | SMILES | solubility thermodynamic [1] [mg/mL] | Human Hepatic Clearance [2] [L/h/kg] | EC50 (HBV [3]) [µM] | Selectivity index (CC50/EC50) (HBV [4]) | CC50 (HepDE19 cells) [µM] | CC50 at 5 days [5] [µM]
1 | CCOC(=O)C1=C(CN2CCOC[C@H]2C(=O)O)NC(c2nccs2)=N[C@H]1c1ccc(F)c(F)c1Cl [Example 60, (S)-4-[(R)-6-(2-Chloro-3,4-difluoro-phenyl)-5-ethoxycarbonyl-2-thiazol-2-yl-3,6-dihydro-pyrimidin-4-ylmethyl]-morpholine-3-carboxylic acid] | > 0.703 | 0.288 | 0.0006 | 47783 | 29 | –
2 | COC(=O)C1=C(CN2CCOC[C@H]2C(=O)O)NC(c2nccs2)=N[C@H]1c1ccc(F)cc1Br [Example 81, (S)-4-[(R)-6-(2-Bromo-4-fluoro-phenyl)-5-methoxycarbonyl-2-thiazol-2-yl-3,6-dihydro-pyrimidin-4-ylmethyl]-morpholine-3-carboxylic acid] | > 0.691 | 0.32 | 0.006 | >16667 | > 100 | –
3 | COC(=O)C1=C(CN2CCOC[C@H]2C(=O)O)NC(c2nc(C)cs2)=N[C@H]1c1ccc(F)cc1Cl [Example 17, (S)-4-[(R)-6-(2-Chloro-4-fluoro-phenyl)-5-methoxycarbonyl-2-(4-methyl-thiazol-2-yl)-3,6-dihydro-pyrimidin-4-ylmethyl]-morpholine-3-carboxylic acid] | > 0.673 | 0.0444 | 0.007 | >14286 | > 100 | –
4 | COC(=O)C1=C(CN2CCO[C@H](C)[C@H]2C(=O)O)NC(c2nccs2)=N[C@H]1c1ccc(F)cc1Cl [Example 104, (2R,3S)-4-[(R)-6-(2-Chloro-4-fluoro-phenyl)-5-methoxycarbonyl-2-thiazol-2-yl-3,6-dihydro-pyrimidin-4-ylmethyl]-2-methyl-morpholine-3-carboxylic acid] | > 0.667 | 0.325 | 0.007 | >14286 | > 100 | –
5 | COC(=O)C1=C(CN2CCOC[C@H]2C(=O)O)NC(c2nccs2)=N[C@H]1c1cccc(F)c1Cl [Example 47, (S)-4-[(R)-6-(2-Chloro-3-fluoro-phenyl)-5-methoxycarbonyl-2-thiazol-2-yl-3,6-dihydro-pyrimidin-4-ylmethyl]-morpholine-3-carboxylic acid] | > 0.66 | 0.0876 | 0.0044 | >2273 | > 100 | –
6 | CCOC(=O)C1=C(CN2CCOC[C@H]2C(=O)O)NC(c2nccs2)=N[C@H]1c1ccccc1Cl [Example 82, (S)-4-[(R)-6-(2-Chloro-phenyl)-5-ethoxycarbonyl-2-thiazol-2-yl-3,6-dihydro-pyrimidin-4-ylmethyl]-morpholine-3-carboxylic acid] | > 0.618 | 0 | 0.014 | >7194 | > 100 | –
7 | COC(=O)C1=C(CN2CCO[C@H](C(C)C)[C@H]2C(=O)O)NC(c2nccs2)=N[C@H]1c1ccc(F)cc1Cl [Example 120, (2R,3S)-4-[(R)-6-(2-Chloro-4-fluoro-phenyl)-5-methoxycarbonyl-2-thiazol-2-yl-3,6-dihydro-pyrimidin-4-ylmethyl]-2-isopropyl-morpholine-3-carboxylic acid] | – | 0.155 | 0.0048 | 16875 | 81 | –
8 | CCOC(=O)C1=C(CN2CCOC[C@H]2C(=O)O)NC(c2nccs2)=N[C@H]1c1ccc(F)c(F)c1Br [Example 128, (3S)-4-[[(4R)-4-(2-Bromo-3,4-difluorophenyl)-5-ethoxycarbonyl-2-(1,3-thiazol-2-yl)-1,4-dihydropyrimidin-6-yl]methyl]morpholine-3-carboxylic acid] | > 0.71 | 0.0156 | 0.0006 | 85000 | 51 | –
9 | CCOC(=O)C1=C(CN2CCOC[C@H]2C(=O)O)NC(c2nccs2)=N[C@H]1c1ccc(F)cc1F [Example 58, (S)-4-[(R)-6-(2,4-Difluoro-phenyl)-5-ethoxycarbonyl-2-thiazol-2-yl-3,6-dihydro-pyrimidin-4-ylmethyl]-morpholine-3-carboxylic acid] | > 0.638 | 0.0756 | 0.014 | >7353 | > 100 | –
10 | CCOC(=O)C1=C(CN2CCOC[C@H]2C(=O)O)NC(c2nccs2)=N[C@H]1c1ccc(F)cc1 [Example 54, (S)-4-[(S)-5-Ethoxycarbonyl-6-(4-fluoro-phenyl)-2-thiazol-2-yl-3,6-dihydro-pyrimidin-4-ylmethyl]-morpholine-3-carboxylic acid] | > 0.606 | 0 | 0.014 | 4293 | 62 | –
11 | CCOC(=O)C1=C(CN2CCOC[C@H]2C(=O)O)NC(c2nccs2)=N[C@H]1c1cccc(F)c1Cl [Example 63, (S)-4-[(R)-6-(2-Chloro-3-fluoro-phenyl)-5-ethoxycarbonyl-2-thiazol-2-yl-3,6-dihydro-pyrimidin-4-ylmethyl]-morpholine-3-carboxylic acid] | > 0.679 | 0.103 | 0.0008 | >125000 | > 100 | –
12 | COC(=O)C1=C(CN2CCOC[C@H]2C(=O)O)NC(c2nccs2)=N[C@H]1c1ccccc1Br [Example 71, (S)-4-[(R)-6-(2-Bromo-phenyl)-5-methoxycarbonyl-2-thiazol-2-yl-3,6-dihydro-pyrimidin-4-ylmethyl]-morpholine-3-carboxylic acid] | > 0.642 | 0.169 | 0.0048 | >20833 | – | > 100
13 | COC(=O)C1=C(CN2CCO[C@H](C)[C@H]2C(=O)O)NC(c2nccs2)=N[C@H]1c1ccc(F)cc1Br [Example 106, (2R,3S)-4-[(R)-6-(2-Bromo-4-fluoro-phenyl)-5-methoxycarbonyl-2-thiazol-2-yl-3,6-dihydro-pyrimidin-4-ylmethyl]-2-methyl-morpholine-3-carboxylic acid] | > 0.73 | 0.379 | 0.0021 | >47619 | – | > 100
14 | [2H]C1([2H])[C@@H](C(=O)O)N(CC2=C(C(=O)OC)[C@H](c3ccc(F)cc3Cl)N=C(c3nccs3)N2)CC1(F)F [Example 19, (R)-6-((S)-2-Carboxy-[3,3-^2H2]-4,4-difluoro-pyrrolidin-1-ylmethyl)-4-(2-chloro-4-fluoro-phenyl)-2-thiazol-2-yl-1,4-dihydro-pyrimidine-5-carboxylic acid methyl ester] | > 0.654 | 0.219 | 0.0057 | 15614 | – | 89
